Source: US7432392B2, “Ester derivatives and medical use thereof” (Japan Tobacco Inc., priority 2003, dated 2008)

Tests used:
[1] = Metabolic stability test in small intestine S9 (human); assay type: in vitro ADME; settings: Human small intestine S9, 2 mg protein/mL, 37° C.
Experimental: (§1) Human and hamster liver S9 (final concentration: 2 mg protein/mL), and human and hamster small intestine S9 (final concentration: 2 mg protein/mL) were each suspended in 100 mM potassium phosphate buffer (pH 7.4, containing β-nicotinamide adenine dinucleotide phosphate: 1.3 mM, D-glucose-6-phosphate: 3.3 mM, magnesium chloride: 3.3 mM, and glucose-6-phosphate dehydrogenase: 0.4 U/mL). The suspensions were mixed with a solution of a sample (Example 1) in DMSO. The solutions were incubated at 37° C. for 0, 10 and 60 minutes, and an organic solvent was added thereto. The solutions were centrifuged, and the concentration of the sample (unchanged form) in the supernatant was determined by high performance liquid chromatography/mass spectrometry (LC/MS). Based on the data obtained, remaining rate (%) was calculated according to the following equation. Remaining rate(%)=amount of sample 10 or 60 minutes after incubation/amount of sample at zero time after incubation×100

[2] = Metabolic stability test in liver S9 (human); assay type: in vitro ADME; settings: Human liver S9, 2 mg protein/mL, 37° C.
Experimental: as §1

[3] = test system: apolipoprotein B secretion from HepG2 cells; test: Inhibition of apolipoprotein B secretion from HepG2 cells; assay type: cell-based; settings: Homo sapiens, about 20 hours incubation, apo B in supernatant by ELISA
Experimental: HepG2 cells were suspended in Dulbecco's Modified Eagle's Medium (DMEM) (containing 10% fetal bovine serum, 100 units/mL penicillin and 100 μg/mL streptomycin), and placed on a 96-well plate (4×10^4 cells/well), then incubated for 24 hours. After removal of the medium, DMEM was replaced by a medium containing a sample dissolved in DMSO or a medium containing DMSO (concentration of DMSO: 0.5%) and incubation was further performed for about 20 hours, after which the supernatant was recovered, and concentration of apo B in the supernatant was assayed by Enzyme-Linked Immunosorbent Assay (ELISA)
ELISA was carried out as follows. Anti-human apo B monoclonal antibody (0.5 μg/well) diluted with a 50 mM sodium carbonate/sodium bicarbonate buffer was placed in a 96-well plate for ELISA, and allowed to stand at room temperature for 15 hours. After washing the plate, a blocking solution (250 μL/well) was placed in the well, and allowed to stand at room temperature for 1.5 hours. After washing the plate, a standard and a sample (100 μL/well) were placed in the well and allowed to stand at room temperature for 1.5 hours. The standard was prepared by adjusting the concentration of the purified human apo B with the DMEM to 0 to 250 ng/mL. After washing the plate, an anti-human apo B polyclonal antibody labeled with a horse radish peroxidase which was diluted in 1:1000 with DEME (100 μL/well) was added, and allowed to stand at room temperature for 1.5 hours. After washing the plate, 2,2-azinobis(3-ethylbenzothiazoline-6-sulfonic acid) solution (100 μL/well) was placed in the well, and allowed to stand at room temperature for 0.5 hour. The reaction was stopped by addition of 2% oxalic acid (100 μL/well), and absorbency at 405 nm was measured. Concentration of apo B in the sample was calculated on the basis of a standard curve of the standard. Inhibition rate (%) was calculated from the assayed values in accordance with the following equation. Inhibition rate (%)=100×(1 minus (concentration of apo B in sample group/concentration of apo B in DMSO group).
Based on the above equation, 50% inhibition concentration (IC50) was determined.

CCOC(=O)C(COC(=O)Cc1ccc(NC(=O)c2ccccc2-c2ccc(C(F)(F)F)cc2)c(OC(C)=O)c1)(C(=O)OCC)c1ccccc1 [Example 1, 2-(2-{3-acetoxy-4-[(4′-trifluoromethyl-biphenyl-2-carbonyl)amino]phenyl}acetoxymethyl)-2-phenylmalonic acid diethyl ester]
Remaining rate (%) after 10 minutes ([1]; 10 minutes): 7.5% | Remaining rate (%) after 60 minutes ([1]; 60 minutes): 1.1% | Remaining rate (%) after 10 minutes ([2]; 10 minutes): 6.2% | Remaining rate (%) after 60 minutes ([2]; 60 minutes): 1.8% | IC50 [3]: < 1000 nM
